Assay results taken from US20250354151A1, “INHIBITORY AGENT FOR MYOCARDIAL CELL DEATH, AND PROPHYLACTIC OR THERAPEUTIC AGENT FOR MYOCARDIAL DISORDERS OR HEART FAILURE” (KYOTO PREFECTURAL PUBLIC UNIVERSITY CORPORATION, priority 2022, published 2025).

What was measured:
[1] = test system: iPS cell-derived cardiomyocytes; test: Viability of cardiomyocytes after treatment with the TAOK1 inhibitor and doxorubicin (PrestoBlue); type: cell-based, human; settings: C43 final concentration 10 nM, added simultaneously with doxorubicin; measured 3 days later; FIG. 4
Experimental: The iPS cell-derived cardiomyocytes were seeded on the 96-well plate coated with the growth factor reduced matrigel, after 5 days or more from the seeding, the TAOK1 inhibitor C43 (MedChemExpress) and the doxorubicin were simultaneously added, and 3 days later, the cell viability was measured with SpectraMaxM2e using the PrestoBlue reagent.

[2] = test system: iPS cell-derived cardiomyocytes; test: Oxygen consumption measurement (Seahorse XF Cell Mito Stress Test); type: cell-based, human; settings: doxorubicin 1 μM for 3 hours vs 0 μM; FIG. 7
Experimental: TAOK1 knock-out cells were obtained from the iPS cell-derived cardiomyocytes in a similar manner as in Test Example 2-1. The obtained cells were treated with the doxorubicin at 0 μM or 1 μM for 3 hours, and oxygen consumption was measured using a Seahorse XFe 96 Flux Analyzer (Agilent) and a Seahorse XF Cell Mito Stress Test Kit (Agilent).

O=C(CNC(=O)c1ccc(-c2ccccc2)cc1)NC1CCCc2ccccc21 (centres unmarked) [Entry C43, N-[2-oxo-2-(1,2,3,4-tetrahydronaphthalen-1-ylamino)ethyl]biphenyl 4-carboxamide]
cell viability (myocardial cell death caused by the doxorubicin) [1]: inhibit the myocardial cell death caused by the doxorubicin

COc1cccc2c1C(=O)c1c(O)c3c(c(O)c1C2=O)C[C@@](O)(C(=O)CO)C[C@@H]3O[C@H]1C[C@H](N)[C@H](O)[C@H](C)O1 [doxorubicin]
oxygen consumption of the cardiomyocytes [2]: significantly reduced
